Measured values published in ChEMBL document CHEMBL1149730, “Constituents of Eriobotrya japonica. A study of their antiviral properties” (J Nat Prod, 1992).
≈ marks a conversion by molar mass, not a printed value. Calls of active or inactive are those of the source. No cut-off for these calls is given here.

Assays:
rhinovirus A1B [1] = experiment: Antiviral activity against HRV1B replication in human Hela Ohio cells assessed as virus-induced cytopathic effect at 50 ug/ml after 24 hrs at 33 degC by light microscopy; type: functional, Human rhinovirus 1B
[2] = system: Human immunodeficiency virus 1; experiment: Antiviral activity against HIV1 3B replication in human C8166 cells at 8 ug/ml after 5 to 7 days by MTT-formazan method; type: functional
[3] = Cytotoxicity against human HeLa Ohio cells assessed as maximum non-toxic dose after 24 hrs by neutral red staining; type: cell-based; details: read-out: Activity
[4] = system: Human immunodeficiency virus 1; experiment: Antiviral activity against HIV1 3B replication in human C8166 cells at 40 ug/ml after 5 to 7 days by MTT-formazan method; type: functional
[5] = Cytotoxicity against human HeLaS3 cells assessed as maximum non-toxic dose after 24 hrs by neutral red staining; type: cell-based, HeLa S3; details: read-out: Activity
[6] = molecular target: Human immunodeficiency virus type 1 reverse transcriptase (Human immunodeficiency virus 1) (UniProt Q72547); experiment: Inhibition of HIV1 reverse transcriptase assessed as [3H]dTTP incorporation up to 50 ug/ml by liquid scintillation counting
Sindbis virus [7] = experiment: Antiviral activity against Sindbis virus replication in human HelaS3 cells assessed as virus-induced cytopathic effect at 20 ug/ml after 24 hrs at 37 degC by light microscopy; type: functional
[8] = Cytotoxicity against human C8166 cells after 5 to 7 days by MTT-formazan method; type: cell-based; details: read-out: TC50 (the source's name)
Sindbis virus [9] = experiment: Antiviral activity against Sindbis virus replication in human HelaS3 cells assessed as virus-induced cytopathic effect at 4 ug/ml after 24 hrs at 37 degC by light microscopy; type: functional
[10] = system: Human immunodeficiency virus 1; experiment: Antiviral activity against HIV1 3B replication in human C8166 cells at 4 ug/ml after 5 to 7 days by MTT-formazan method; type: functional
rhinovirus A1B [11] = experiment: Antiviral activity against HRV1B replication in human Hela Ohio cells assessed as inhibition of virus-induced cytopathic effect at 4 ug/ml after 24 hrs at 33 degC by light microscopy; type: functional, Human rhinovirus 1B; details: Rhinovirus A
rhinovirus A1B [12] = experiment: Antiviral activity against HRV1B replication in human Hela Ohio cells assessed as virus-induced cytopathic effect at 20 ug/ml after 24 hrs at 33 degC by light microscopy; type: functional, Human rhinovirus 1B
rhinovirus A1B [13] = experiment: Antiviral activity against HRV1B replication in human Hela Ohio cells assessed as inhibition of virus-induced cytopathic effect at 0.8 ug/ml after 24 hrs at 33 degC by light microscopy; type: functional, organism-based; details: Human rhinovirus 1B
[14] = system: Human immunodeficiency virus 1; experiment: Antiviral activity against HIV1 3B replication in human C8166 cells at 100 ug/ml after 5 to 7 days by MTT-formazan method; type: functional
[15] = system: Human immunodeficiency virus 1; experiment: Antiviral activity against HIV1 3B replication in human C8166 cells at 20 ug/ml after 5 to 7 days by MTT-formazan method; type: functional
[16] = system: Human immunodeficiency virus 1; experiment: Antiviral activity against HIV1 3B replication in human C8166 cells at 0.8 ug/ml after 5 to 7 days by MTT-formazan method; type: functional
Sindbis virus [17] = experiment: Antiviral activity against Sindbis virus replication in human HelaS3 cells assessed as virus-induced cytopathic effect at 50 ug/ml after 24 hrs at 37 degC by light microscopy; type: functional
[18] = system: Human immunodeficiency virus 1; experiment: Antiviral activity against HIV1 3B replication in human C8166 cells at 100 uM after 5 to 7 days by MTT-formazan method; type: functional
[19] = system: Human immunodeficiency virus 1; experiment: Antiviral activity against HIV1 3B replication in human C8166 cells at 0.016 ug/ml after 5 to 7 days by MTT-formazan method; type: functional

SMILES	Activity (rhinovirus A1B [1]) [%]	Activity [2] [%]	MNTC at 24 h [3] [µg/mL]	Activity [4] [%]	MNTC at 24 h [5] [µg/mL]	Activity [6]	Activity (Sindbis virus [7]) [%]	CC50 [8] [µg/mL]	Activity (Sindbis virus [9]) [%]	Activity [10] [%]	inhibition at 4 µg/mL (rhinovirus A1B [11]) [%]	Activity (rhinovirus A1B [12]) [%]	Activity (rhinovirus A1B [13])	Activity [14] [%]	Activity [15] [%]	Activity [16] [%]	Activity (Sindbis virus [17]) [%]	Activity [18] [%]	Activity [19] [%]
C[C@@H]1CC[C@]2(C(=O)O)CC[C@]3(C)C(=CC[C@@H]4[C@@]5(C)C[C@@H](O)[C@@H](O)C(C)(C)[C@@H]5CC[C@]43C)[C@@H]2[C@]1(C)O [EUSCAPHIC ACID]	100	1	50	0	20	inactive	100	20 (≈ 40.9 µM)	–	–	–	–	–	–	–	–	–	–	–
C[C@@H]1CC[C@]2(C(=O)O)CC[C@]3(C)C(=CC[C@@H]4[C@@]5(C)C[C@@H](O)[C@H](OC(=O)/C=C/c6ccc(O)c(O)c6)C(C)(C)[C@@H]5CC[C@]43C)[C@@H]2[C@]1(C)O	–	–	20	–	4	inactive	–	10 (≈ 15.4 µM)	100	1	< 25	50	inactive	–	–	–	–	–	–
C[C@@H]1CC[C@]2(C(=O)O)CC[C@]3(C)C(=CC[C@@H]4[C@@]5(C)C[C@@H](O)[C@H](O)[C@@](C)(COC(=O)/C=C/c6ccc(O)cc6)[C@@H]5CC[C@]43C)[C@@H]2[C@]1(C)O	100	–	50	–	20	inactive	100	30 (≈ 46.1 µM)	–	–	–	–	–	0	0	–	–	–	–
C[C@@H]1CC[C@]2(C(=O)O)CC[C@]3(C)C(=CC[C@@H]4[C@@]5(C)C[C@@H](O)[C@H](O)[C@@](C)(COC(=O)/C=C\c6ccc(O)cc6)[C@@H]5CC[C@]43C)[C@@H]2[C@]1(C)O	–	–	20	–	20	inactive	100	50 (≈ 76.8 µM)	–	–	–	100	–	0	0	–	–	–	–
C[C@@H]1CC[C@]2(C(=O)O)CC[C@]3(C)C(=CC[C@@H]4[C@@]5(C)CC[C@H](OC(=O)/C=C/c6ccc(O)cc6)[C@@](C)(CO)[C@@H]5CC[C@]43C)[C@@H]2[C@]1(C)O	–	–	20	–	20	inactive	100	30 (≈ 47.3 µM)	–	–	–	100	–	0	0	–	–	–	–
C[C@@H]1CC[C@]2(C(=O)O)CC[C@]3(C)C(=CC[C@@H]4[C@@]5(C)CC[C@H](O)C(C)(C)[C@@H]5[C@H](O)C[C@]43C)[C@@H]2[C@]1(C)O	–	–	20	–	20	inactive	100	2 (≈ 4.09 µM)	–	0	–	100	–	–	–	1	–	–	–
C[C@@H]1CC[C@]2(C(=O)O)CC[C@]3(C)C(=CC[C@@H]4[C@@]5(C)C[C@@H](O)[C@H](O)[C@@](C)(CO)[C@@H]5CC[C@]43C)[C@@H]2[C@]1(C)O	100	1	50	0	50	inactive	–	20 (≈ 39.6 µM)	–	–	–	–	–	–	–	–	100	–	–
Cc1cn([C@H]2C[C@H](N=[N+]=[N-])[C@@H](CO)O2)c(=O)[nH]c1=O [ZIDOVUDINE]	–	–	–	–	–	–	–	> 1000	–	–	–	–	–	–	–	–	–	100	49
